In US20250059195A1, “TRIAZOLONE DERIVATIVE SALT AS NEUTROPHIL ELASTASE INHIBITOR” (CHIESI FARMACEUTICI S.P.A., priority 2021, published 2025):
Where two headings read alike, the source gives them in different places.

What was measured:
[1] = rat, in vivo
Protocol: (§1) Male Wistar rats were dosed by the snout-only inhalation route with (2-{5-Cyano-2-[(R)-6-methoxycarbonyl-7-methyl-3-oxo-8-(3-trifluoromethyl-phenyl)-2,3,5,8-tetrahydro-[1,2,4]triazolo[4,3-a]pyrimidin-5-yl]-phenyl}-ethyl)-trimethyl-ammonium methanesulfonate salt (described in WO 2014/095700), (2-{5-Cyano-2-[(R)-6-methoxycarbonyl-7-methyl-3-oxo-8-(3-trifluoromethyl-phenyl)-2,3,5,8-tetrahydro-[1,2,4]triazolo[4,3-a]pyrimidin-5-yl]-phenyl}-ethyl)-trimethyl-ammonium xinafoate salt (I) and (2-{5-Cyano-2-[(R)-6-methoxycarbonyl-7-methyl-3-oxo-8-(3-trifluoromethyl-phenyl)-2,3,5,8-tetrahydro-[1,2,4]triazolo[4,3-a]pyrimidin-5-yl]-phenyl}-ethyl)-trimethyl-ammonium acetate salt (which is described in WO 2014/095700), (2-{5-Cyano-2-[(R)-6-methoxycarbonyl-7-methyl-3-oxo-8-(3-trifluoromethyl-phenyl)-2,3,5,8-tetrahydro-[1,2,4]triazolo[4,3-a]pyrimidin-5-yl]-phenyl}-ethyl)-trimethyl-ammonium bromide salt (whose synthesis is described in WO 2014/095700) or lactose (vehicle) given as dry powder formulations. The duration of aerosol exposure was of 60 minutes. On the day of dosing, animals were placed into the plethysmograph tubes for at least 30 minutes prior to dosing and respiratory parameters: respiratory rate, tidal volume, and PenH were continuously recorded for at least 30 minutes pre-dose, 60 minutes during dosing (exposure) and 90 minutes post-exposure. The respiratory parameters were recorded every minute for a total period of 3 hours using the EMMS eDacq system (PLY231, EMMS, Bordon, United Kingdom).

[2] = Head-out plethysmography (HOP) assay, lung function parameters; settings: rats, dry powder snout-only inhalation
Protocol: as §1

[3] = target: T1, human neutrophil elastase (HNE) (Homo sapiens, UniProt P08246); assay: HNE-induced lung injury assay (BAL fluid haemoglobin content); format: in vivo, rat; settings: for % Inhibition at 300 μg/Kg (inhibition of HNE-induced haemoglobin content in BALF) / % Inhibition at 600 μg/Kg (inhibition of HNE-induced haemoglobin content in BALF): male Sprague Dawley rats, dry powder nose-only inhalation 3 hours prior to HNE i.t. 100 U/rat, vs HNE-treated vehicle control; for % Inhibition at 300 μg/Kg (inhibition of HNE-induced haemoglobin content in BALF): 300 μg/Kg (0.3 mg/kg); for % Inhibition at 600 μg/Kg (inhibition of HNE-induced haemoglobin content in BALF): 600 μg/Kg (0.6 mg/kg); for inhibition of BAL fluid haemoglobin content, dose dependence: inhalation as dry powder formulation at 0.03, 0.3 and 0.6 mg/kg
T1 sequence (P08246 30-267): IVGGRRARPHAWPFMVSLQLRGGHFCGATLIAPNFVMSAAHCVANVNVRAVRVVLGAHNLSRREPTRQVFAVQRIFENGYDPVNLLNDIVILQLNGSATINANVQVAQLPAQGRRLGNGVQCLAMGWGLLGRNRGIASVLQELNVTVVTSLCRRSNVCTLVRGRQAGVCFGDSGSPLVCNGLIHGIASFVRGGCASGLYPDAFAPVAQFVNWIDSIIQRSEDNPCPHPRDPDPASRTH
Protocol: Then, one hour after the PBS or HNE administration animals were sacrificed and bronchoalveolar lavage (BAL) was performed in order to assess the HNE-induced lung injury measured as haemoglobin concentration.
BAL fluid samples were centrifuged at 800 g for 15 min at 4° C. The supernatant was collected and the pellet was re-suspended in 3 mL of distilled water. A standard curve with known volumes of lysated blood cells was made from a stem solution of lysated blood cells. 150 μL of standards and samples were transferred in duplicate to a 96-well plate and the OD measured at 412 nm.
Percentage of compound efficacy (assessed as inhibition of HNE-induced haemoglobin content in BALF) was calculated following this formula: 100−[(mean of haemoglobin concentration of test compound treated rats exposed to HNE)−(mean of haemoglobin concentration of vehicle treated rats exposed to PBS)]/[(mean of haemoglobin concentration of vehicle treated rats exposed to HNE)−(mean of haemoglobin concentration of vehicle treated rats exposed to PBS)]×100.

[4] = Solubility in water of different salts; format: physicochemical; settings: water at RT
Protocol: The complete dissolution of the material was visually observed. […] From this experiment the xinafoate salt has a solubility lower than 0.05 mg/ml.

[5] = male, Wistar, 0.6 mg/kg, 60 min

## CC(=O)[O-].COC(=O)C1=C(C)N(c2cccc(C(F)(F)F)c2)c2n[nH]c(=O)n2[C@@H]1c1ccc(C#N)cc1CC[N+](C)(C)C [Acetate, (2-{5-Cyano-2-[(R)-6-methoxycarbonyl-7-methyl-3-oxo-8-(3-trifluoromethyl-phenyl)-2,3,5,8-tetrahydro-[1,2,4]triazolo[4,3-a]pyrimidin-5-yl]-phenyl}-ethyl)-trimethyl-ammonium acetate salt]
[1]; male, Wistar, 7 mg/kg, 60 min
  increase in PenH area: about 9 fold
  increase in respiratory rate, maximum effect vs vehicle: 51%
  reduced tidal volume, maximum decrease vs vehicle control: 50%
[1]; male, Wistar, 60 min
  % of Reduction of tidal volume at the highest tested dose: 50%

## COC(=O)C1=C(C)N(c2cccc(C(F)(F)F)c2)c2n[nH]c(=O)n2[C@@H]1c1ccc(C#N)cc1CC[N+](C)(C)C.[Br-] [Bromide, (2-{5-Cyano-2-[(R)-6-methoxycarbonyl-7-methyl-3-oxo-8-(3-trifluoromethyl-phenyl)-2,3,5,8-tetrahydro-[1,2,4]triazolo[4,3-a]pyrimidin-5-yl]-phenyl}-ethyl)-trimethyl-ammonium bromide salt]
[2]; high dose (5.5 mg/kg)
  increase in PenH area compared to vehicle: ~20 fold
[2]; high dose (5.5 mg/kg), during inhalation
  reduction in tidal volume, maximum vs vehicle: 38%
[2]; low dose (0.55 mg/kg)
  increase in PenH area compared to vehicle: about 8 fold
[2]; low dose (0.55 mg/kg), during inhalation
  increase in respiratory rate, maximum effect vs vehicle: 59%
[2]; peak effect vs vehicle (lactose)
  % of Reduction of tidal volume at the highest tested dose: 38%

## COC(=O)C1=C(C)N(c2cccc(C(F)(F)F)c2)c2n[nH]c(=O)n2[C@@H]1c1ccc(C#N)cc1CC[N+](C)(C)C.CS(=O)(=O)[O-] [Methanesulfonate, (2-{5-Cyano-2-[(R)-6-methoxycarbonyl-7-methyl-3-oxo-8-(3-trifluoromethyl-phenyl)-2,3,5,8-tetrahydro-[1,2,4]triazolo[4,3-a]pyrimidin-5-yl]-phenyl}-ethyl)-trimethyl-ammonium methanesulfonate]
[1]; [5]
  increase of PenH compared to vehicle group: about 8 fold
  increase of respiratory rate, peak effect vs vehicle (lactose): 32%
  reduction of tidal volume, peak effect vs vehicle: 35%
[1]; male, Wistar, 6 mg/kg, 60 min
  increase of PenH compared to vehicle group: ~16 fold
  increase of respiratory rate, peak effect vs vehicle (lactose): 54%
  reduction of tidal volume, peak effect vs vehicle: 39%
[1]; male, Wistar, 60 min
  % of Reduction of tidal volume at the highest tested dose: 35-39%
[3]
  % Inhibition at 300 μg/Kg (inhibition of HNE-induced haemoglobin content in BALF): 20%
  % Inhibition at 600 μg/Kg (inhibition of HNE-induced haemoglobin content in BALF): 25%
[3]; rats
  inhibition of BAL fluid haemoglobin content, dose dependence: dose-dependent inhibition

## COC(=O)C1=C(C)N(c2cccc(C(F)(F)F)c2)c2n[nH]c(=O)n2[C@@H]1c1ccc(C#N)cc1CC[N+](C)(C)C [Xinafoate, (2-{5-Cyano-2-[(R)-6-methoxycarbonyl-7-methyl-3-oxo-8-(3-trifluoromethyl-phenyl)-2,3,5,8-tetrahydro-[1,2,4]triazolo[4,3-a]pyrimidin-5-yl]-phenyl}-ethyl)-trimethyl-ammonium xinafoate]
[1]
  % of Reduction of tidal volume at the highest tested dose: No variation of any lung function parameters
[3]
  % Inhibition at 300 μg/Kg (inhibition of HNE-induced haemoglobin content in BALF): 35%
  % Inhibition at 600 μg/Kg (inhibition of HNE-induced haemoglobin content in BALF): 80%
[3]; rats, dry powder inhalation
  efficacy in inhibiting HNE in vivo, comparison of the salts: superior efficacy than the methanesulfonate salt
[3]; rats
  inhibition of BAL fluid haemoglobin content, dose dependence: dose-dependent inhibition
[4]; thermodynamic from solid, read-out: Solubility (mg/ml) in water
  solubility: < 0.05 mg/mL
[4]
  Solubility (mg/ml) in water: <0.05 mg/mL
